Data taken from article PMC5391474, “Investigation of the Role of Protein Kinase D in Human Rhinovirus Replication” (Journal of Virology, 2017).

Legend:
Experiment in all cases: biochemical
Parameters in all cases: in vitro kinase selectivity panel, protein and lipid kinases, single concentration, ATP at Km
Conditions in all cases: ATP at Km
Aurora-A(h) = target: T1, Aurora-A(h) (Homo sapiens, UniProt O14965)
T1 construct: gene AURKA
In short: (§1)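 Single-point screen against a protein and lipid kinase panel: inhibitor at 1 μM. ATP concentration for every kinase equivalent to its Km.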

CDK2/cyclinA(h) = CDK2/cyclinA(h) (Homo sapiens, UniProt P24941)
In short: as §1

CDK5/p35(h) = target: T2, CDK5/p35(h) (Homo sapiens, UniProt Q00535)
T2 construct: p35
In short: as §1

EphA2(h) = EphA2(h) (Homo sapiens, UniProt P29317)
In short: as §1

FGFR3(h) = FGFR3(h) (Homo sapiens, UniProt P22607)
Sequence of FGFR3(h) (P22607 whole entry): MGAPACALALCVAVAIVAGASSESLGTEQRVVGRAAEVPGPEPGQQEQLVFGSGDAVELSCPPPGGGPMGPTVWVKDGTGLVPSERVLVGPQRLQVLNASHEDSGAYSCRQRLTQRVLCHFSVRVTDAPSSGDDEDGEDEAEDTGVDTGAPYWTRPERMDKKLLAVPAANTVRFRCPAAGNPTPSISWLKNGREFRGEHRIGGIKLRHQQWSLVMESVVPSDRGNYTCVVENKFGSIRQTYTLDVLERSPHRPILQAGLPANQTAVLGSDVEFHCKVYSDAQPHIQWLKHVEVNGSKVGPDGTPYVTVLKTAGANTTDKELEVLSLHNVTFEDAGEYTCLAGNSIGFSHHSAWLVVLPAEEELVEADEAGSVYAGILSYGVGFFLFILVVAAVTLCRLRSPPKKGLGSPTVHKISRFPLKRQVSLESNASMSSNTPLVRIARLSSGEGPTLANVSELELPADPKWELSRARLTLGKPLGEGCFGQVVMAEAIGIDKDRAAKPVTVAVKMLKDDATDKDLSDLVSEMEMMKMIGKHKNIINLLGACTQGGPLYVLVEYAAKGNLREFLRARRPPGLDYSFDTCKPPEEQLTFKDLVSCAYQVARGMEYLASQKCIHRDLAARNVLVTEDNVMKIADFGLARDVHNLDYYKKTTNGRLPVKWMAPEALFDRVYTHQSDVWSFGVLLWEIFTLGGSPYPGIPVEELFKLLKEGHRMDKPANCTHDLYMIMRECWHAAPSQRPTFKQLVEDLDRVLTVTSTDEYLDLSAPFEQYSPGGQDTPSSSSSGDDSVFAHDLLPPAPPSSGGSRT
In short: as §1

Flt3(h) = Flt3(h) (Homo sapiens, UniProt P36888)
In short: as §1

Fms(h) = target: T3, Fms(h) (Homo sapiens, UniProt P07333)
T3 construct: gene CSF1R
T3 sequence (P07333 whole entry): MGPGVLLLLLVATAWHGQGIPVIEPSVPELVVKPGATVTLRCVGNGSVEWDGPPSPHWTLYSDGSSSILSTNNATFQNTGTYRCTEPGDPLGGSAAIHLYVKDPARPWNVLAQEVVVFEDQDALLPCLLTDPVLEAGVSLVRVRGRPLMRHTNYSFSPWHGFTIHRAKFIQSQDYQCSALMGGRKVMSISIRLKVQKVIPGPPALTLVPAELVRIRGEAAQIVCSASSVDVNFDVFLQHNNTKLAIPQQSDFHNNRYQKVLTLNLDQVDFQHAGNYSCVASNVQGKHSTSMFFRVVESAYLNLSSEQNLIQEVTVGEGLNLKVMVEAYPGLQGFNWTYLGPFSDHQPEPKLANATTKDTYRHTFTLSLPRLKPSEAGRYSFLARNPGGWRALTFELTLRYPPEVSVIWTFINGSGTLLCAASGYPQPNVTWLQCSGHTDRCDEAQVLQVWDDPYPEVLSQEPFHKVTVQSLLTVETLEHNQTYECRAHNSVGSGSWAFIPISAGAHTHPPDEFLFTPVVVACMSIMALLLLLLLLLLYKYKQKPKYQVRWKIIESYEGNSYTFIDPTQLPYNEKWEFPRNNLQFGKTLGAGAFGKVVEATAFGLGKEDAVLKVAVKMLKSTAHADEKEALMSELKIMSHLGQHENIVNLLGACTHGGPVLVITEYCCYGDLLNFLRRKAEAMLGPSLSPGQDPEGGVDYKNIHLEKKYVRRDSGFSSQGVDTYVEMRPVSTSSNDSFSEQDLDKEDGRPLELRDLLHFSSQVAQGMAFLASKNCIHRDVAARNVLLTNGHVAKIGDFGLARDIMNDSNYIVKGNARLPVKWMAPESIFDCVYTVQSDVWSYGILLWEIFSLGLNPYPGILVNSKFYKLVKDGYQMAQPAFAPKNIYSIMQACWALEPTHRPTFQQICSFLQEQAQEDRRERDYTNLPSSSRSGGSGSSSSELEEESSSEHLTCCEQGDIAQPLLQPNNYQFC
In short: as §1

HIPK2(h) = HIPK2(h) (Homo sapiens, UniProt Q9H2X6)
In short: as §1

Hck(h) = Hck(h) (Homo sapiens, UniProt P08631)
In short: as §1

IGF-1R(h) = target: T4, IGF-1R(h) (Homo sapiens, UniProt P08069)
T4 construct: gene IGF1R
In short: as §1

KDR(h) = KDR(h) (Homo sapiens, UniProt P35968)
In short: as §1

MST3(h) = target: T5, MST3(h) (Homo sapiens, UniProt Q9Y6E0)
T5 construct: gene STK24
In short: as §1

Met(h) = Met(h) (Homo sapiens, UniProt P08581)
Sequence of Met(h) (P08581 whole entry): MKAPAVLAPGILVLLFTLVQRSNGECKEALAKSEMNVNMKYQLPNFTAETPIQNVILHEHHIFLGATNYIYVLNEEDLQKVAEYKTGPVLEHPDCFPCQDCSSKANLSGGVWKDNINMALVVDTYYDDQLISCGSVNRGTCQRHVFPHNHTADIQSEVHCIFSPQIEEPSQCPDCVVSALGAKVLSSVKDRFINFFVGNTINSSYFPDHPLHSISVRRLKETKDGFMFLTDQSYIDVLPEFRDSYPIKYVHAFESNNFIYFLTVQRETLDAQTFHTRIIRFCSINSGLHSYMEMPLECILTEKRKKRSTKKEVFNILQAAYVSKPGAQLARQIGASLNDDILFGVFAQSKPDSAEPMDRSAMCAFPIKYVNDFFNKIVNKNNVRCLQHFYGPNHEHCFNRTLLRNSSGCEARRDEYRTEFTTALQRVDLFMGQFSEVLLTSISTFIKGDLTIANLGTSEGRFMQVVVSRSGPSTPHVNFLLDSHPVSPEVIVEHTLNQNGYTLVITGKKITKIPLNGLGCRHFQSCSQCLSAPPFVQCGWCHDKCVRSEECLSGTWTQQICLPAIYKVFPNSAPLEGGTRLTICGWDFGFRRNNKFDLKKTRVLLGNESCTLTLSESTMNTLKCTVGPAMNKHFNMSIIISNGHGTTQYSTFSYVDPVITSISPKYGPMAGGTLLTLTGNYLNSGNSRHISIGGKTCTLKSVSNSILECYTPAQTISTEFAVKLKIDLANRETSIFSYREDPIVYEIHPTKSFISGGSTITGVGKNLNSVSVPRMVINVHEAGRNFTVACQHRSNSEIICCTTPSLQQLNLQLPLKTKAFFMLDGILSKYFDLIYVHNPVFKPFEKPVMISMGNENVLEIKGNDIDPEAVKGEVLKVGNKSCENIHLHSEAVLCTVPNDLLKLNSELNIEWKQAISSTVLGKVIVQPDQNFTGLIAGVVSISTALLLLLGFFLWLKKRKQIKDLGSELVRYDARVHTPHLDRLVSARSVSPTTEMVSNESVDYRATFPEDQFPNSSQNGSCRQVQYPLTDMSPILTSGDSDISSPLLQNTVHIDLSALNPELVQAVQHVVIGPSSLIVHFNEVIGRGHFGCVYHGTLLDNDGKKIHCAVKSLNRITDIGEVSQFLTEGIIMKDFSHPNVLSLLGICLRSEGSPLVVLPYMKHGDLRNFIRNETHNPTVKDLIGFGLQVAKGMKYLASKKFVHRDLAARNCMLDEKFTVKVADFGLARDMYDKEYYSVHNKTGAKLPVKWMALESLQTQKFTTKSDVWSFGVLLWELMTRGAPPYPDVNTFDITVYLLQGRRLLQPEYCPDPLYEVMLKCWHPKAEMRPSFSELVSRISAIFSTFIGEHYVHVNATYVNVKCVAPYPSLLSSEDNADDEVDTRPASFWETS
In short: as §1

PKCβI(h) = target: T6, PKCβI(h) (Homo sapiens, UniProt P05771)
T6 construct: gene PRKCB; isoform beta I
In short: as §1

PKCδ(h) = target: T7, PKCδ(h) (Homo sapiens, UniProt Q05655)
T7 construct: gene PRKCD
T7 sequence (Q05655 whole entry): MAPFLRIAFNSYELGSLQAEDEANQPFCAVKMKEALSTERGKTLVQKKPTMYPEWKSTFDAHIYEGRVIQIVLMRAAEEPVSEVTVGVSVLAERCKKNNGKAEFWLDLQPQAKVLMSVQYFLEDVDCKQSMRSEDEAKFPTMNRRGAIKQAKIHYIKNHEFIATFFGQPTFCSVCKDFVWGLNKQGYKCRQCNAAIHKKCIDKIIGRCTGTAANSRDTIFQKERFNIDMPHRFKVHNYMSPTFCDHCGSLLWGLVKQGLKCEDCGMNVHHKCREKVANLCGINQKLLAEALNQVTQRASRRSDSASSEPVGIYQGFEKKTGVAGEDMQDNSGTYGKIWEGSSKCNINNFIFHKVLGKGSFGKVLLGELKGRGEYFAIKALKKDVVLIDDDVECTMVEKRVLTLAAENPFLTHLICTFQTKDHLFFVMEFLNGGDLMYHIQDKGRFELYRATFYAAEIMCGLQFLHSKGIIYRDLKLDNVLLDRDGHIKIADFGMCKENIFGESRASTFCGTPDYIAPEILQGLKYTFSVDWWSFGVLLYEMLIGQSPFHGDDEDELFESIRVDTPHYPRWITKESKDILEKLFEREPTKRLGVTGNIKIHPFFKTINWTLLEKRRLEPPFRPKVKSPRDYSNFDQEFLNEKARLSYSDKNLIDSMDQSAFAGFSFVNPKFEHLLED
In short: as §1

PRK2(h) = target: T8, PRK2(h) (Homo sapiens, UniProt Q16513)
T8 construct: gene PKN2
T8 sequence (Q16513 whole entry): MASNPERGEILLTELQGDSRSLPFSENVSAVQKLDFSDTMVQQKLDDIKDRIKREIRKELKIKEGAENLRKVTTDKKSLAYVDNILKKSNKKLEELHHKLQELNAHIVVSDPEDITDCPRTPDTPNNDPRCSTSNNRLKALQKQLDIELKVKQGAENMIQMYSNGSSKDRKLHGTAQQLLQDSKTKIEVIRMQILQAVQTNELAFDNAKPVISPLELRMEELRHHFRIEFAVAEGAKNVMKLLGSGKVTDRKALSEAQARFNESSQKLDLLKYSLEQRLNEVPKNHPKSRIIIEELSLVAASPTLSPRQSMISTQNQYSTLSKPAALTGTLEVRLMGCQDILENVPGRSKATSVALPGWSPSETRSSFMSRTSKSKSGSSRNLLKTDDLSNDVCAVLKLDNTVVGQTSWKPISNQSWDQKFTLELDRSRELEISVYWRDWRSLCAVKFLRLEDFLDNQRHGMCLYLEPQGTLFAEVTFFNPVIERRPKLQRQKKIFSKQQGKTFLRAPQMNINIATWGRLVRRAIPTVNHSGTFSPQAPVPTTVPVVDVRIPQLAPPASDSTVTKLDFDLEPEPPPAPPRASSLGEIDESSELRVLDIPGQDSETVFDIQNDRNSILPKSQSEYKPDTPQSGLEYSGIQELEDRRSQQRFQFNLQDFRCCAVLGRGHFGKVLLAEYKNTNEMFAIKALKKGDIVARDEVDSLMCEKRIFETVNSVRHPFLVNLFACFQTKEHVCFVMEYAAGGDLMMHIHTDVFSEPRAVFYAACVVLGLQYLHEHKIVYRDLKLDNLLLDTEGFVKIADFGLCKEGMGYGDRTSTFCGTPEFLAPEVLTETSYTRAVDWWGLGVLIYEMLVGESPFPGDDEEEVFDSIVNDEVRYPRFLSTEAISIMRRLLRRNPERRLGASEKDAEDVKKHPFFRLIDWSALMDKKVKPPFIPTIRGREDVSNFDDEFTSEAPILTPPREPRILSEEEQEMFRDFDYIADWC
In short: as §1

TrkB(h) = target: T9, TrkB(h) (Homo sapiens, UniProt Q16620)
T9 construct: gene NTRK2
In short: as §1

ZIPK(h) = target: T10, ZIPK(h) (Homo sapiens, UniProt O43293)
T10 construct: gene DAPK3
In short: as §1

CC[C@@H](N)CNc1ccnc(-c2cc(-c3cnn(C)c3)ccc2O)n1 [CRT0066101]
inhibition at 1 µM (Aurora-A(h)): -1%
inhibition at 1 µM (CDK2/cyclinA(h)): 53%
inhibition at 1 µM (CDK5/p35(h)): 95%
inhibition at 1 µM (EphA2(h)): 2%
inhibition at 1 µM (FGFR3(h)): -2%
inhibition at 1 µM (Flt3(h)): 4%
inhibition at 1 µM (Fms(h)): 12%
inhibition at 1 µM (HIPK2(h)): 55%
inhibition at 1 µM (Hck(h)): 4%
inhibition at 1 µM (IGF-1R(h)): -14%
inhibition at 1 µM (KDR(h)): 13%
inhibition at 1 µM (MST3(h)): -6%
inhibition at 1 µM (Met(h)): 12%
inhibition at 1 µM (PKCβI(h)): 11%
inhibition at 1 µM (PKCδ(h)): 28%
inhibition at 1 µM (PRK2(h)): 77%
inhibition at 1 µM (TrkB(h)): 15%
inhibition at 1 µM (ZIPK(h)): 7%
